Experiment [1] relates to Soybean seeds. As to the kind of experiment: Phytotoxicity evaluation during soybean germination. The class given is in vivo. Particulars: 1 μM in germination media, 10 days. The protocol:
To evaluate the effect of synthetic auxin conjugates in plants, 2,4-D-Asp, 2,4-D-Glu, dicamba-Asp, and dicamba-Glu were synthesized (Irvine Chemistry Laboratory, Anaheim, Calif.) and tested for auxin effects during soybean germination.
Asp and Glu conjugates of 2,4-D and dicamba were dissolved in a small quantity of Na2CO3 and ethanol, respectively, diluted in ddH2O to obtain 10 mM stock solution, and filter sterilized. Soybean seeds of a Pioneer elite germplasm were sterilized with chlorine gas as following: a) two layers of seeds were placed in a 100×25 mm plastic Petri dish; b) in an exhaust fume hood, seeds were placed into a glass desiccator with a 250 mL beaker containing 100 mL bleach (5% NaOC1) and 3.5 mL 12N HCl was slowly added to the beaker; c) the lid was sealed closed on the desiccator and the seeds sterilized for at least 24 hr.
Sterilized soybean seeds were then imbibed in ddH2O under sterile conditions at 25° C. for 24 hours before germination test. For germination test, 6-8 imbibed seeds were placed on a 100×25 mm deep Petri dish plate containing 50 ml germination media supplemented with or without auxin herbicide conjugates. 1 L seed germination media contains 3.21 g GAMBORG B-5 basal medium (PhytoTech), 20 g sucrose, 5 g tissue culture agar, and is pH adjusted to 5.7. Media was autoclaved at 121° C. for 25 min and cooled to 60° C. before the addition of auxin conjugates. Germination was carried out in a Percival growth chamber at 25° C. under 18 hr light and 6 hr dark cycle at 90 to 150 μE/m2/s and grown for 10 days.

Experiment [2] deals with Transgenic Arabidopsis lines overexpressing SEQ ID NO:3. As to the kind of experiment: Root growth inhibition by 2,4-D, transgenic Arabidopsis. Type of experiment: in vivo, Arabidopsis thaliana. The protocol: Arabidopsis (Arabidopsis thaliana) expressing GH3 genes were produced using floral dip methods of Agrobacterium mediated transformation (Clough S J and Bent A F, 1998, Plant J. 16:735-43; Chung M. H., Chen M. K., Pan S. M. 2000. Transgenic Res. 9: 471-476; Weigel D. and Glazebrook J. 2006. In Planta Transformation of Arabidopsis. Cold Spring Harb. Protoc. 4668 3). Briefly, Arabidopsis (Col-0) plants were grown in soil in pots. The first inflorescence shoots were removed as soon as they emerged. Plants were ready for transformation when the secondary inflorescence shoots were about 3 inches tall. Agrobacterium carrying a suitable binary vector were cultured in 5 mL LB medium at 28° C. with shaking at 200 rpm for two days. 1 mL of the culture was then inoculated into 200 ml fresh LB media and incubated again with vigorous agitation for an additional 20-24 hours at 28° C. The Agrobacterium culture was then subjected to centrifugation at 6000 rpm in a GSA rotor (or equivalent) for 10 minutes. The pellet was resuspended in 20-100 mL of spraying medium containing 5% (wt/v) sucrose and 0.01-0.2% (v/v) Silwet L-77. The Agrobacterium suspension was transferred into a hand-held sprayer for spraying onto inflorescences of the transformation-ready Arabidopsis plants. The sprayed plants were covered with a humidity dome for 24 hours before the cover was removed for growth under normal growing conditions. Seeds were harvested. Screening of transformants was performed under sterile conditions. Surface sterilized seeds were placed onto MS-Agar plates (Phyto Technology labs Prod. No. M519) containing appropriate selective antibiotics (kanamycin 50 mg/L, hygromycin 20 mg/L, or bialaphos 10 mg/L). Anti-Agrobacteirum antibiotic timentin was also included in the media. Plates were cultured at 21° C. at 16 hr light for 7-14 days. Transgenic events harboring GH3 genes were germinated and transferred to soil pots in the greenhouse for evaluation of herbicide tolerance.
A selectable marker gene used to facilitate Arabidopsis transformation was a chimeric gene composed of the 35S promoter from Cauliflower Mosaic Virus (Odell et al. 1985. Nature 313:810-812), the bar gene from Streptomyces hygroscopicus (Thompson et al., 1987. EMBO J. 6:2519-2523), and the 3′UBQ14 terminator region from Arabidopsis (Callis et al., 1995. Genetics 139 (2), 921-939). Another visual selectable marker gene used to facilitate Arabidopsis transformation was a chimeric gene composed of the UBQ promoter from soybean (Xing et al., 2010. Plant Biotechnology Journal 8:772-782), the YFP coding sequence, and the 3′ region of the nopaline synthase gene from the T-DNA of the Ti plasmid of Agrobacterium tumefaciens. Bialophos was used as the selection agent during the transformation process. GH3 genes were expressed with a constitutive promoter, for example, the Arabidopsis UBQ10 promoter (Norris et al., 1993. Plant Mol Biol 21:895-906) or UBQ3 promoter (Norris et al., 1993. Plant Mol Biol 21:895-906) for strong or moderate expression, a GH3 coding sequence, and the 3′ terminator region of the French bean phaseolin gene (Sun et al., 1981. Nature 289:37-41; Slightom et al., 1983. Proc. Natl. Acad. Sci. U.S.A. 80 (7), 1897-1901)
Seeds of Arabidopsis ecotype Columbia (Col-0) and GH3 transgenic events were surface sterilized with 70% (v/v) ethanol for 5 minutes and 10% (v/v) bleach for 15 minutes. After being washed three times with distilled water, the seeds were incubated at 4° C. for 4 days. The seeds were then germinated on 1× Murashige and Skoog (MS) medium with a pH of 5.7, 3% (w/v) sucrose, and 0.8% (w/v) agar. After incubation for 3.5 days, the seedlings were transferred to the basal medium containing B5 vitamin, 3% (w/v) sucrose, […] MES (pH 5.7), 1.2% (w/v) agar, and filter sterilized auxin herbicides 2,4-D or dicamba was added to the media at 60° C. […] The concentrations of dicmaba were 0 μM, 1.0 μM, 5.0 μM, 7.0 μM, and 10 μM. […]

In the case of `O=C(O)COc1ccc(Cl)cc1Cl` [2,4-D, 2,4-dichlorophenoxyacetic acid], the “Soybean seed germination and growth” value in experiment [1] is “seed germination was arrested”. The “Percentage of the average root length compared with 0 nM 2,4-D treatment” value worked out at 80% in experiment [2] (Line #1, 10 nM 2,4-D); 43% in experiment [2] (Line #1, 100 nM 2,4-D); 83% in experiment [2] (Line #2, 10 nM 2,4-D); 36% in experiment [2] (Line #2, 100 nM 2,4-D); 88% in experiment [2] (Line #3, 10 nM 2,4-D); 63% in experiment [2] (Line #3, 100 nM 2,4-D). Besides, the “Percentage of the average root length compared with 0 nM 2,4-D treatment” value in experiment [2] (Line #4, 10 nM 2,4-D) was determined as 101%; in experiment [2] (Line #4, 100 nM 2,4-D), 60%; in experiment [2] (Line #5, 10 nM 2,4-D), 76%; in experiment [2] (Line #5, 100 nM 2,4-D) it was 50%. Besides, in experiment [2] (transgenic line #4, 10 nM 2,4-D, result in words), the “Inhibition of root growth by 2,4-D” value is “completely alleviated”.

These data come from patent US20150351390A1, “COMPOSITIONS AND METHODS FOR AUXIN-ANALOG CONJUGATION” (PIONEER HI-BRED INTERNATIONAL, INC., priority 2012, published 2015).
